Earlier results, collected in article PMC6443429 (Molecular pharmaceutics, 2019).

How the values were obtained:
[1] = system: MC1R, B16/F1 melanoma cells
[2] = system: MC1R, B16/F10 melanoma cells

Q: For “1,4,7,10-tetraazacyclononane-1,4,7,10-tetraacetic acid-Gly-Gly-Nle-c[Asp-His-DPhe-Arg-Trp-Lys]-CONH2 (sidechain bridge or staple) [DOTA-GGNle-CycMSHhex]”, which MC1R binding affinity [1] is on record?
A: Its MC1R binding affinity is “nanomolar”.

Q: What about the MC1R binding affinity [2] of the same substance?
A: Its MC1R binding affinity is “nanomolar”.
